Assay results as given in ChEMBL document CHEMBL1151029, “Structure-activity relationships of sulfur-containing triazole antifungals” (1995).
Converted amounts (≈) assume the structure as drawn.

Legend:
Format in all cases: functional
[1] = Mean survival days evaluated in vivo for prophylactic efficiency against murine systemic candidiasis at a dose of 10 mg/kg
[2] = test system: Candida albicans; assay: In vitro antifungal activity against Candida albicans KB-8
[3] = test system: Aspergillus fumigatus; assay: In vitro antifungal activity against Aspergillus fumigatus MTU6001
[4] = Mean survival days evaluated in vivo for prophylactic efficiency against murine systemic aspergillosis at a dose of 50 mg/kg
[5] = test system: Mus musculus; assay: Mean survival days evaluated in vivo for prophylactic efficiency against murine systemic aspergillosis at a dose of 100 mg/kg

Structure (SMILES)	Mean survival [1] [days]	MIC [2] [µg/mL]	MIC [3] [µg/mL]	Mean survival [4] [days]	Mean survival [5] [days]
CCCCCS[C@H](C)[C@](O)(Cn1cncn1)c1ccc(F)cc1F	9.9	≤ 0.013	0.78 (≈ 2.19 µM)	2.5	–
CCCCCCCCCCS[C@H](C)[C@](O)(Cn1cncn1)c1ccc(F)cc1F	9.1	≤ 0.013	0.78 (≈ 1.83 µM)	8	–
CCCCCCCCS(=O)(=O)[C@H](C)[C@](O)(Cn1cncn1)c1ccc(F)cc1F	1.3	≤ 0.013	3.13 (≈ 7.29 µM)	1.6	–
C[C@H]([C@](O)(Cn1cncn1)c1ccc(F)cc1F)S(C)(=O)=O [GENACONAZOLE]	10	0.2 (≈ 0.604 µM)	12.5 (≈ 37.7 µM)	10	–
OC(Cn1cncn1)(Cn1cncn1)c1ccc(F)cc1F [FLUCONAZOLE]	10	0.78 (≈ 2.55 µM)	400 (≈ 1310 µM)	–	2.8
CCCCCCCCCCCS[C@H](C)[C@](O)(Cn1cncn1)c1ccc(F)cc1F	5.8	≤ 0.013	25 (≈ 56.9 µM)	1.6	–
CCCCCCS[C@H](C)[C@](O)(Cn1cncn1)c1ccc(F)cc1F	9.2	≤ 0.013	0.39 (≈ 1.06 µM)	6.8	–
CCCCS(=O)(=O)[C@H](C)[C@](O)(Cn1cncn1)c1ccc(F)cc1F	7.6	0.2 (≈ 0.536 µM)	12.5 (≈ 33.5 µM)	4.1	–
CCS[C@H](C)[C@](O)(Cn1cncn1)c1ccc(F)cc1F	10	0.025 (≈ 0.0798 µM)	1.56 (≈ 4.98 µM)	9.8	–
CCCCCCCS(=O)(=O)[C@H](C)[C@](O)(Cn1cncn1)c1ccc(F)cc1F	0.9	≤ 0.013	6.25 (≈ 15 µM)	1.1	–
CCCCCCCCCCCS(=O)(=O)[C@H](C)[C@](O)(Cn1cncn1)c1ccc(F)cc1F	1.1	≤ 0.013	3.13 (≈ 6.64 µM)	1.6	–
CCCS[C@H](C)[C@](O)(Cn1cncn1)c1ccc(F)cc1F	4.4	0.1 (≈ 0.305 µM)	12.5 (≈ 38.2 µM)	1	–
CCCCCCCCCCS(=O)(=O)[C@H](C)[C@](O)(Cn1cncn1)c1ccc(F)cc1F	3.9	≤ 0.013	< 0.2	1.5	–
C[C@@H](SCCCCCO)[C@](O)(Cn1cncn1)c1ccc(F)cc1F	9.8	0.025 (≈ 0.0673 µM)	0.78 (≈ 2.1 µM)	10	–
CCCS(=O)(=O)[C@H](C)[C@](O)(Cn1cncn1)c1ccc(F)cc1F	8.3	0.2 (≈ 0.556 µM)	6.25 (≈ 17.4 µM)	10	–
CCCCCCCCS[C@H](C)[C@](O)(Cn1cncn1)c1ccc(F)cc1F	8.6	≤ 0.013	0.39 (≈ 0.981 µM)	7.2	–
C[C@H]([C@](O)(Cn1cncn1)c1ccc(F)cc1F)S(=O)(=O)CCCCCCCO	1	0.39 (≈ 0.904 µM)	25 (≈ 57.9 µM)	1.2	–
CCCCS[C@H](C)[C@](O)(Cn1cncn1)c1ccc(F)cc1F	9.9	≤ 0.013	0.78 (≈ 2.28 µM)	2.5	–
C[C@@H](SCCCCCCCO)[C@](O)(Cn1cncn1)c1ccc(F)cc1F	10	≤ 0.013	0.78 (≈ 1.95 µM)	9.7	–
CCCCCS(=O)(=O)[C@H](C)[C@](O)(Cn1cncn1)c1ccc(F)cc1F	0.4	0.2 (≈ 0.516 µM)	25 (≈ 64.5 µM)	3.6	–
CCCCCCCCCS(=O)(=O)[C@H](C)[C@](O)(Cn1cncn1)c1ccc(F)cc1F	0.6	≤ 0.013	0.78 (≈ 1.76 µM)	1	–
CCCCCCCCCS[C@H](C)[C@](O)(Cn1cncn1)c1ccc(F)cc1F	5	≤ 0.013	3.13 (≈ 7.61 µM)	1.8	–
C[C@@H](SCCCCCCO)[C@](O)(Cn1cncn1)c1ccc(F)cc1F	2.8	≤ 0.013	0.78 (≈ 2.02 µM)	2.8	–
C[C@@H](SCCCCCCCCO)[C@](O)(Cn1cncn1)c1ccc(F)cc1F	4.3	≤ 0.013	≤ 0.2	3.5	–
C[C@H]([C@](O)(Cn1cncn1)c1ccc(F)cc1F)S(=O)(=O)CCCCCCCCO	0.5	0.1 (≈ 0.224 µM)	6.25 (≈ 14 µM)	3	–
CCCCCCCS[C@H](C)[C@](O)(Cn1cncn1)c1ccc(F)cc1F	10	≤ 0.013	≤ 0.2	2.2	–
CCCCCCS(=O)(=O)[C@H](C)[C@](O)(Cn1cncn1)c1ccc(F)cc1F	2.6	0.1 (≈ 0.249 µM)	12.5 (≈ 31.1 µM)	1.6	–
C[C@@H](SCCCCO)[C@](O)(Cn1cncn1)c1ccc(F)cc1F	2.5	0.2 (≈ 0.56 µM)	6.25 (≈ 17.5 µM)	3.2	–
C[C@H]([C@](O)(Cn1cncn1)c1ccc(F)cc1F)S(=O)(=O)CCCCCCO	1.4	0.39 (≈ 0.934 µM)	100 (≈ 240 µM)	3.1	–
